From PMC8508785, “Synthesis and In Silico Docking of New Pyrazolo[4,3-e]pyrido[1,2-a]pyrimidine-based Cytotoxic Agents” (International Journal of Molecular Sciences, 2021)

Legend:
MCF-7 cells (breast) = assay: SRB cytotoxicity assay, MCF-7; assay type: cell-based; conditions: Homo sapiens, MCF7, 72 h of treatment
Method: (§1) The synthesized compounds were evaluated for their cytotoxic activity by a photometric […] (SRB) on different human cancer cell lines, malignant melanoma (A375), colon (HT29), breast (MCF-7), human ovarian carcinoma (A2780) and pharynx carcinoma (FaDu); for comparison, non-malignant mouse embryonic fibroblasts (NIH 3T3) and human embryonic kidney cells (HEK293) were included; doxorubicin (DX) was used as a positive control.
(§2) The cell lines were obtained from Department of oncology (MartinLutherUniversity Halle-Wittenberg). Cultures were maintained as monolayers in RPMI 1640 medium with L-glutamine (Capricorn Scientific GmbH, Ebsdorfergrund, Germany) supplemented with 10% heat-inactivated fetal bovine serum (Sigma-Aldrich Chemie GmbH, Steinheim, Germany) and penicillin/streptomycin (1%, Capricorn Scientific GmbH, Ebsdorfergrund, Germany) at 37 °C in a humidified atmosphere with 5% CO2.
(§3) The cytotoxicity of the compounds was evaluated using the sulforhodamine-B (Kiton-Red S, ABCR: Karlsruhe, Germany) microculture colorimetric assay using […] cells in 96-well plates with the seeding of the cells on day 0,by applying appropriate cell densities to prevent confluence of the cells during the period of the experiment. On day 1, the cells were treated with six different concentrations (1, 3, 7, 12, 20 and 30 μM); thereby, the final concentration of DMSO was always <0.5%, generally regarded as non-toxic to the cells. On day 4, the supernatant medium was discarded; the cells were fixed with 10% trichloroacetic acid. After another day at 4 °C, the cells were washed in a strip washer and dyed with the SRB solution (100 μL, 0.4% in 1% acetic acid) for about 20 min to be followed by washing of the plates (four times, 1% acetic acid) and air-drying overnight. Furthermore, Tris base solution (200 μL, 10 mM) was added to each well, and absorbance was measured at λ = 570 nm employing a reader (96 wells, Tecan Spectra, Crailsheim, Germany). The EC50 values were averaged from three independent experiments performed each in triplicate, calculated from semi-logarithmic dose–response curves applying a non-linear four-parameter Hill-slope equation (GraphPad Prism5 vom Graphpad Software Inc., San Diego, USA; the variables top and bottom were set to 100 and 0, respectively).

HT29 cells (colon) = assay: SRB cytotoxicity assay, HT29; assay type: cell-based; conditions: Homo sapiens, HT-29, 72 h of treatment
Method: as §1, §2, §3

[1] = test system: A2780 cells (human ovarian carcinoma); assay: SRB cytotoxicity assay, A2780; assay type: cell-based; conditions: 72 h of treatment
Method: as §1, §2, §3

[2] = test system: NIH 3T3 non-malignant mouse embryonic fibroblasts; assay: SRB cytotoxicity assay, NIH 3T3; assay type: cell-based; conditions: NIH3T3, 72 h of treatment, non-malignant NIH 3T3
Method: as §1, §2, §3

[3] = test system: FaDu cells (pharynx carcinoma); assay: SRB cytotoxicity assay, FaDu; assay type: cell-based; conditions: Homo sapiens, 72 h of treatment
Method: as §1, §2, §3

[4] = test system: HEK293 human embryonic kidney cells; assay: SRB cytotoxicity assay, HEK293; assay type: cell-based; conditions: 72 h of treatment, non-malignant HEK293
Method: as §1, §2, §3

[5] = test system: A375 cells (malignant melanoma); assay: SRB cytotoxicity assay, A375; assay type: cell-based; conditions: Homo sapiens, A-375, 72 h of treatment
Method: as §1, §2, §3

[6] = test system: human tumor cell lines A375, HT29, MCF7, A2780, FaDu; assay: SRB cytotoxicity assay, panel of human tumor cell lines; assay type: cell-based; conditions: one statement for several/all five cancer cell lines, read-out: EC50 across the cancer cell lines
Method: as §1, §2
as §3, with “After another day at 4 °C, the cells were washed in a strip washer and dyed with the SRB solution (100 μL, 0.4% in 1% acetic acid) for about 20 min to be followed by washing of the plates (four times, 1% acetic acid) and air-drying overnight.” left out

Compound | EC50 (MCF-7 cells (breast)) | EC50 (HT29 cells (colon)) | EC50 [1] | EC50 [2] | melting point | EC50 [3] | EC50 [4] | EC50 [5] | EC50 [6]
COc1cccc2c1C(=O)c1c(O)c3c(c(O)c1C2=O)C[C@@](O)(C(=O)CO)C[C@@H]3O[C@H]1C[C@H](N)[C@H](O)[C@H](C)O1 [DX, doxorubicin, reference compound] | 1.1 ± 0.3 µM | 0.9 ± 0.01 µM | 0.01 ± 0.01 µM | 0.4 ± 0.07 µM | – | – | – | – | –
CC(=O)C1=C(C)N2C(=C(C#N)C1c1ccccc1)N=C(N)c1c(C)nn(-c3ccccc3)c12 (stereo not shown) [Compound 7c, 8-Acetyl-4-amino-3,9-dimethyl-1,7-diphenyl-1,7-dihydropyrazolo[4,3-e]Pyrido[1,2-a]pyrimidine-6-carbonitrile] | 19.5 ± 1.1 µM | > 30 µM | 25.4 ± 2.5 µM | > 30 µM | 198 °C | > 30 µM | 7.7 ± 1.1 µM | 19.3 ± 3.8 µM | –
CC(=O)C1=C(C)N2C(=C(C#N)C1c1ccc([N+](=O)[O-])s1)N=C(N)c1c(C)nn(-c3ccccc3)c12 (stereo not shown) [Compound 7j, 8-Acetyl-4-amino-3,9-dimethyl-7-(5-nitro-2-thienyl)-1-phenyl-1,7-dihydropyrazolo[4,3-e] Pyrido[1,2-a]pyrimidine-6-carbonitrile] | – | – | – | – | 262 °C | – | – | – | –
CC(=O)C1=C(C)N2C(=C(C#N)C1c1ccc3ccccc3c1)N=C(N)c1c(C)nn(-c3ccccc3)c12 (stereo not shown) [Compound 7k, 8-Acetyl-4-amino-3,9-dimethyl-7-(2-naphthyl)-1-phenyl-1,7-dihydropyrazolo[4,3-e] Pyrido[1,2-a]pyrimidine-6-carbonitrile] | – | – | – | – | 270 °C | – | – | – | –
CC(=O)/C=C(\C)Nc1c(C#N)c(C)nn1-c1ccccc1 [Compound 5, 3-Methyl-5-{[(1E)-1-methyl-3-oxobut-1-en-1-yl]amino}-1-phenyl-1H-pyrazole-4-carbonitrile] | > 30 µM | > 30 µM | > 30 µM | > 30 µM | 109 °C | > 30 µM | > 30 µM | > 30 µM | > 30 µM
CC(=O)C1=C(C)N2C(=C(C#N)C1c1cccnc1)N=C(N)c1c(C)nn(-c3ccccc3)c12 (stereo not shown) [Compound 7l, 8-Acetyl-4-amino-3,9-dimethyl-1-phenyl-7-pyridin-3-yl-1,7-dihydropyrazolo[4,3-e] Pyrido[1,2-a]pyrimidine-6-carbonitrile] | – | – | – | – | 306 °C | – | – | – | –
CC(=O)C1=C(C)N2C(=C(C#N)C1c1ccc(Br)cc1)N=C(N)c1c(C)nn(-c3ccccc3)c12 (stereo not shown) [Compound 7e, 8-Acetyl-4-amino-7-(4-bromophenyl)-3,9-dimethyl-1-phenyl-1,7-dihydropyrazolo[4,3-e] Pyrido[1,2-a]pyrimidine-6-carbonitrile] | 9.2 ± 0.7 µM | 13.3 ± 1.8 µM | 9.1 ± 1.6 µM | 12.3 ± 0.7 µM | 192 °C | 13.5 ± 1.5 µM | 6.6 ± 0.6 µM | 9.4 ± 1.2 µM | 9.1 to 13.5 µM
Cc1nn(-c2ccccc2)c(N)c1C#N [Compound 3, 5-Amino-3-methyl-1-phenyl-1H-pyrazole-4-carbonitrile] | > 30 µM | > 30 µM | > 30 µM | > 30 µM | 132 °C | > 30 µM | > 30 µM | > 30 µM | > 30 µM
COc1ccc(C2C(C#N)=C3N=C(N)c4c(C)nn(-c5ccccc5)c4N3C(C)=C2C(C)=O)cc1OC (stereo not shown) [Compound 7h, 8-Acetyl-4-amino-7-(3,4-dimethoxyphenyl)-3,9-dimethyl-1-phenyl-1,7-dihydropyrazolo[4,3-e] Pyrido[1,2-a]pyrimidine-6-carbonitrile] | 25.1 ± 2.8 µM | > 30 µM | 27.5 ± 8.1 µM | > 30 µM | 260 °C | > 30 µM | 24 ± 3.4 µM | 22.1 ± 4.9 µM | –
CC(=O)C1=C(C)N2C(=C(C#N)C1c1ccc([N+](=O)[O-])cc1)N=C(N)c1c(C)nn(-c3ccccc3)c12 (stereo not shown) [Compound 7g, 8-Acetyl-4-amino-3,9-dimethyl-7-(4-nitrophenyl)-1-phenyl-1,7-dihydropyrazolo[4,3-e] Pyrido[1,2-a]pyrimidine-6-carbonitrile] | 15.7 ± 2.2 µM | 25.9 ± 3.4 µM | 14.5 ± 2.2 µM | > 30 µM | 164 °C | > 30 µM | 17 ± 1.3 µM | 16.2 ± 2 µM | –
CC(=O)C1=C(C)N2C(=C(C#N)C1c1ccc(Cl)cc1)N=C(N)c1c(C)nn(-c3ccccc3)c12 (stereo not shown) [Compound 7a, 8-Acetyl-4-amino-7-(4-chlorophenyl)-3,9-dimethyl-1-phenyl-1,7-dihydropyrazolo[4,3-e] Pyrido[1,2-a]pyrimidine-6-carbonitrile] | 17.2 ± 1.4 µM | 29.9 ± 1.4 µM | 18 ± 3 µM | 23 ± 1.4 µM | 167 °C | > 30 µM | 15.8 ± 2 µM | 19.3 ± 3 µM | –
CC(=O)C1=C(C)N2C(=C(C#N)C1c1ccc(C)cc1)N=C(N)c1c(C)nn(-c3ccccc3)c12 (stereo not shown) [Compound 7b] | 12.2 ± 1.3 µM | 17.5 ± 1.8 µM | 14.6 ± 2.2 µM | 21.3 ± 0.9 µM | 167 °C | 22.3 ± 2.7 µM | 12.4 ± 0.9 µM | 12.9 ± 1.6 µM | –
COc1ccc(C2C(C#N)=C3N=C(N)c4c(C)nn(-c5ccccc5)c4N3C(C)=C2C(C)=O)cc1 (stereo not shown) [Compound 7d, 8-Acetyl-4-Amino-7-(4-methoxyphenyl)-3,9-dimethyl-1-phenyl-1,7-dihydropyrazolo[4,3-e] Pyrido[1,2-a]pyrimidine-6-carbonitrile] | 18.4 ± 2.3 µM | 28.3 ± 3.5 µM | 21.7 ± 3.9 µM | > 30 µM | 160 °C | > 30 µM | 16.7 ± 1.2 µM | 21.5 ± 3.6 µM | –
CC(=O)C1=C(C)N2C(=C(C#N)C1c1ccc(Cl)c(Cl)c1)N=C(N)c1c(C)nn(-c3ccccc3)c12 (stereo not shown) [Compound 7i, 8-Acetyl-4-amino-7-(3,4-dichlorophenyl)-3,9-dimethyl-1-phenyl-1,7-dihydropyrazolo[4,3-e] Pyrido[1,2-a]pyrimidine-6-carbonitrile] | – | – | – | – | 235 °C | – | – | – | –
CC(=O)C1=C(C)N2C(=C(C#N)C1c1ccc(F)cc1)N=C(N)c1c(C)nn(-c3ccccc3)c12 (stereo not shown) [Compound 7f, 8-Acetyl-4-amino-7-(4-fluorophenyl)-3,9-dimethyl-1-phenyl-1,7-sihydropyrazolo[4,3-e] Pyrido[1,2-a]pyrimidine-6-carbonitrile] | 19.2 ± 1.3 µM | 24.7 ± 4.4 µM | 19.2 ± 3.9 µM | 24.1 ± 2.8 µM | 259 °C | > 30 µM | 14.7 ± 1.4 µM | 18.1 ± 3.3 µM | –
